What was measured:
Assay in all cases: Cell viability drug screen, 12-point dose-response AUC
Format in all cases: cell-based, human
FU97 = tested on: FU97; parameters: Average Area Under the Viability Curve (AUC), AUC norm value: scale not given here; conditions: FU97 cells, 72 hours; for area under the viability curve (AUC), normalized: 12-point dose-response
In short: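 Trapezoidal AUC of a 12-point, DMSO-normalized dose-response curve. Luminescent viability was measured after 72 h of exposure at 37° C to half-log serial dilutions (0.5% DMSO control), dosed 24 h after plating FU97 cells at 5×10^3 per well.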

AGS = conditions: 72 hours; for area under the viability curve (AUC), normalized: AGS cells, 12-point dose-response
In short: (§1)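 Dose-response AUC reflects 72 h drug exposure of gastric cancer cells in a 12-point, half-log format, with viability read by luminescence and normalized to DMSO (0.5%).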

SNU601 = SNU601 cells, 72 hours; for area under the viability curve (AUC), normalized: 12-point dose-response
In short: (§2)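 AUC comes from 12-point half-log dose–response curves, normalized to DMSO-treated cells and integrated trapezoidally, repeats averaged. Luminescent viability read after 72 h compound exposure at 37 °C; cells plated 5×10^3 per well 24 h before dosing.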

MKN1 = MKN1 cells, 72 hours; for area under the viability curve (AUC), normalized: 12-point dose-response
In short: as §2

SNU1 = SNU1 cells, 72 hours; for area under the viability curve (AUC), normalized: 12-point dose-response
In short: as §2

SNU668 = conditions: 72 hours; for area under the viability curve (AUC), normalized: SNU668 cells, 12-point dose-response
In short: as §2

MKN45 = conditions: 72 hours; for area under the viability curve (AUC), normalized: MKN45 cells, 12-point dose-response
In short: as §1

NCC24 = NCC24 cells, 72 hours; for area under the viability curve (AUC), normalized: 12-point dose-response
In short: as §2

SNU638 = SNU638 cells, 72 hours; for area under the viability curve (AUC), normalized: 12-point dose-response
In short: as §2

NCC19 = NCC19 cells, 72 hours; for area under the viability curve (AUC), normalized: 12-point dose-response
In short: as §2

Hs746T = conditions: 72 hours; for area under the viability curve (AUC), normalized: Hs746T cells, 12-point dose-response
In short: as §2

OCUM1 = OCUM1 cells, 72 hours; for area under the viability curve (AUC), normalized: 12-point dose-response
In short: as §2

NCC59 = NCC59 cells, 72 hours; for area under the viability curve (AUC), normalized: 12-point dose-response
In short: as §2

SNU1967 = SNU1967 cells, 72 hours; for area under the viability curve (AUC), normalized: 12-point dose-response
In short: as §2

NCC20 = NCC20 cells, 72 hours; for area under the viability curve (AUC), normalized: 12-point dose-response
In short: as §2

SK4 = conditions: 72 hours; for area under the viability curve (AUC), normalized: SK4 cells, 12-point dose-response
In short: as §2

YCC11 = conditions: 72 hours; for area under the viability curve (AUC), normalized: YCC11 cells, 12-point dose-response
In short: as §2

NCI_N87 = NCI_N87 cells, 72 hours; for area under the viability curve (AUC), normalized: 12-point dose-response
In short: as §2

MKN28 = MKN28 cells, 72 hours; for area under the viability curve (AUC), normalized: 12-point dose-response
In short: as §2

KATO3 = KATO3 cells, 72 hours; for area under the viability curve (AUC), normalized: 12-point dose-response
In short: as §2

YCC2 = YCC2 cells, 72 hours; for area under the viability curve (AUC), normalized: 12-point dose-response
In short: as §2

SNU16 = SNU16 cells, 72 hours; for area under the viability curve (AUC), normalized: 12-point dose-response
In short: as §2

SNU719 = SNU719 cells, 72 hours; for area under the viability curve (AUC), normalized: 12-point dose-response
In short: as §1

YCC3 = YCC3 cells, 72 hours; for area under the viability curve (AUC), normalized: 12-point dose-response
In short: as §2

SNU216 = conditions: 72 hours; for area under the viability curve (AUC), normalized: SNU216 cells, 12-point dose-response
In short: as §1

MKN74 = MKN74 cells, 72 hours; for area under the viability curve (AUC), normalized: 12-point dose-response
In short: as §1

SNU484 = conditions: 72 hours; for area under the viability curve (AUC), normalized: SNU484 cells, 12-point dose-response
In short: as §2

SNU620 = SNU620 cells, 72 hours; for area under the viability curve (AUC), normalized: 12-point dose-response
In short: as §2

SNU1750 = conditions: 72 hours; for area under the viability curve (AUC), normalized: SNU1750 cells, 12-point dose-response
In short: as §2

OC1(c2ccc(Cl)c(C(F)(F)F)c2)CCN(CCCC(c2ccc(F)cc2)c2ccc(F)cc2)CC1 [Penfluridol]
Average Area Under the Viability Curve (AUC), AUC norm value (FU97): 0.09295
Average Area Under the Viability Curve (AUC), AUC norm value (AGS; AGS cells (non-SEM subtype)): −0.6917
Average Area Under the Viability Curve (AUC), AUC norm value (SNU601): 0.6748
Average Area Under the Viability Curve (AUC), AUC norm value (MKN1): −0.01646
Average Area Under the Viability Curve (AUC), AUC norm value (SNU1): 0.8479
Average Area Under the Viability Curve (AUC), AUC norm value (SNU668; SNU668 cells (SEM subtype)): 0.00275
Average Area Under the Viability Curve (AUC), AUC norm value (MKN45; MKN45 cells (non-SEM subtype)): 0.9981
Average Area Under the Viability Curve (AUC), AUC norm value (NCC24): 0.5023
Average Area Under the Viability Curve (AUC), AUC norm value (SNU638): −1.32
Average Area Under the Viability Curve (AUC), AUC norm value (NCC19): 0.6239
Average Area Under the Viability Curve (AUC), AUC norm value (Hs746T; Hs746T cells (SEM subtype)): 0.2822
Average Area Under the Viability Curve (AUC), AUC norm value (OCUM1): 0.2066
Average Area Under the Viability Curve (AUC), AUC norm value (NCC59): 0.3439
Average Area Under the Viability Curve (AUC), AUC norm value (SNU1967): −0.08879
Average Area Under the Viability Curve (AUC), AUC norm value (NCC20): −0.8471
Average Area Under the Viability Curve (AUC), AUC norm value (SK4; SK4 cells (SEM subtype)): −0.5075
Average Area Under the Viability Curve (AUC), AUC norm value (YCC11; YCC11 cells (SEM subtype)): −0.5164
Average Area Under the Viability Curve (AUC), AUC norm value (NCI_N87): 0.3682
Average Area Under the Viability Curve (AUC), AUC norm value (MKN28): −0.6097
Average Area Under the Viability Curve (AUC), AUC norm value (KATO3): 0
Average Area Under the Viability Curve (AUC), AUC norm value (YCC2): −0.07658
Average Area Under the Viability Curve (AUC), AUC norm value (SNU16): −1.2587
Average Area Under the Viability Curve (AUC), AUC norm value (SNU719): 0.3303
Average Area Under the Viability Curve (AUC), AUC norm value (YCC3): 0.4477
Average Area Under the Viability Curve (AUC), AUC norm value (SNU216; SNU216 cells (non-SEM subtype)): −0.5069
Average Area Under the Viability Curve (AUC), AUC norm value (MKN74): −1.133
Average Area Under the Viability Curve (AUC), AUC norm value (SNU484; SNU484 cells (SEM subtype)): −0.3957
Average Area Under the Viability Curve (AUC), AUC norm value (SNU620): 0.04726
Average Area Under the Viability Curve (AUC), AUC norm value (SNU1750; SNU1750 cells (SEM subtype)): −0.03209

CCCCc1nc2cc(/C=C/C(=O)NO)ccc2n1CCN(CC)CC [SB939 (Pracinostat), Pracinostat]
area under the viability curve (AUC), normalized (FU97): 0
area under the viability curve (AUC), normalized (AGS): −1.799
area under the viability curve (AUC), normalized (SNU601): 0.1827
area under the viability curve (AUC), normalized (MKN1): 0.232
area under the viability curve (AUC), normalized (SNU1): −1.4
area under the viability curve (AUC), normalized (SNU668): 0.519
area under the viability curve (AUC), normalized (MKN45): 1.672
area under the viability curve (AUC), normalized (NCC24): −1.137
area under the viability curve (AUC), normalized (SNU638): −0.278
area under the viability curve (AUC), normalized (NCC19): 0.6538
area under the viability curve (AUC), normalized (Hs746T): 0.7098
area under the viability curve (AUC), normalized (OCUM1): 0.7195
area under the viability curve (AUC), normalized (NCC59): 1.053
area under the viability curve (AUC), normalized (SNU1967): −0.4581
area under the viability curve (AUC), normalized (NCC20): −0.08068
area under the viability curve (AUC), normalized (SK4): −0.454
area under the viability curve (AUC), normalized (YCC11): −0.768
area under the viability curve (AUC), normalized (NCI_N87): −0.6724
area under the viability curve (AUC), normalized (MKN28): −0.5866
area under the viability curve (AUC), normalized (KATO3): 0.2173
area under the viability curve (AUC), normalized (YCC2): −0.02045
area under the viability curve (AUC), normalized (SNU16): −1.067
area under the viability curve (AUC), normalized (SNU719): 2.187
area under the viability curve (AUC), normalized (YCC3): 1.403
area under the viability curve (AUC), normalized (SNU216): 0.6217
area under the viability curve (AUC), normalized (MKN74): 0.3806
area under the viability curve (AUC), normalized (SNU484): 0.208
area under the viability curve (AUC), normalized (SNU620): −1.199
area under the viability curve (AUC), normalized (SNU1750): −1.156

Cc1ccc(C(=O)N(CCCN)[C@@H](c2oc3cc(Cl)ccc3c(=O)c2Cc2ccccc2)C(C)C)cc1 [SB 743921]
area under the viability curve (AUC), normalized (FU97): 0.8407
area under the viability curve (AUC), normalized (AGS): −2.366
area under the viability curve (AUC), normalized (SNU601): −1.703
area under the viability curve (AUC), normalized (MKN1): −1.406
area under the viability curve (AUC), normalized (SNU1): −0.9587
area under the viability curve (AUC), normalized (SNU668): 0
area under the viability curve (AUC), normalized (MKN45): 2.818
area under the viability curve (AUC), normalized (NCC24): −2.238
area under the viability curve (AUC), normalized (SNU638): −0.2572
area under the viability curve (AUC), normalized (NCC19): 1.296
area under the viability curve (AUC), normalized (Hs746T): 1.359
area under the viability curve (AUC), normalized (OCUM1): 1.653
area under the viability curve (AUC), normalized (NCC59): 2.285
area under the viability curve (AUC), normalized (SNU1967): 0.8572
area under the viability curve (AUC), normalized (NCC20): −1.288
area under the viability curve (AUC), normalized (SK4): −0.9769
area under the viability curve (AUC), normalized (YCC11): −1.353
area under the viability curve (AUC), normalized (NCI_N87): −1.205
area under the viability curve (AUC), normalized (MKN28): −1.699
area under the viability curve (AUC), normalized (KATO3): 3.189
area under the viability curve (AUC), normalized (YCC2): 0.2048
area under the viability curve (AUC), normalized (SNU16): −1.454
area under the viability curve (AUC), normalized (SNU719): 2.115
area under the viability curve (AUC), normalized (YCC3): 2.421
area under the viability curve (AUC), normalized (SNU216): 2.438
area under the viability curve (AUC), normalized (MKN74): 0.00599
area under the viability curve (AUC), normalized (SNU484): −1.3076
area under the viability curve (AUC), normalized (SNU620): −2.366
area under the viability curve (AUC), normalized (SNU1750): 0.00014
